Measured values taken from patent publication US20150105252A1, “SUBSTITUTED PYRAZOLES AS HERBICIDES” (E I DU PONT DE NEMOURS AND COMPANY, priority 2013, published 2015).

Experiments:
oat, wild = assay: Test D postemergence; assay type: in vivo, Avena fatua; settings: scale 0 to 100
From the text: (§1) Seeds of plant species selected from bluegrass (annual bluegrass, Poa annua), blackgrass (Alopecurus myosuroides), canarygrass (littleseed canarygrass, Phalaris minor), chickweed (common chickweed, Stellaria media), galium (catchweed bedstraw, Galium aparine), bromegrass, downy (downy bromegrass, Bromus tectorum), field poppy (Papaver rhoeas), field violet (Viola arvensis), foxtail, green (green foxtail, Setaria viridis), deadnettle (henbit deadnettle, Lamium amplexicaule), ryegrass, Italian (Italian ryegrass, Lolium multiflorum), kochia (Kochia scoparia), lambsquarters (Chenopodium album), oilseed rape (Brassica napus), pigweed (redroot pigweed, Amaranthus retroflexus), chamomile (scentless chamomile, Matricaria inodora), speedwell (bird's-eye speedwell, Veronica persica), barley, spring (spring barley, Hordeum vulgare), wheat, spring (spring wheat, Triticum aestivum), buckwheat, wild (wild buckwheat, Polygonum convolvulus), mustard, wild (wild mustard, Sinapis arvensis), oat, wild (wild oat, Avena fatua), radish, wild (wild radish, Raphanus raphanistrum), windgrass (Apera spica-venti), Russian thistle (Salsola kali), barley, winter (winter barley, Hordeum vulgare), and wheat, winter (winter wheat, Triticum aestivum) were planted into a silt loam soil and treated preemergence with test chemicals formulated in a non-phytotoxic solvent mixture which included a surfactant.
(§2) At the same time, these species were planted in pots containing Redi-Earth® planting medium (Scotts Company, 14111 Scottslawn Road, Marysville, Ohio 43041) comprising spaghnum peat moss, vermiculite, wetting agent and starter nutrients and treated with postemergence applications of the test chemicals formulated in the same manner. Plants ranged in height from 2 to 18 cm (1- to 4-leaf stage). Treated plants and controls were maintained in a controlled growth environment for 14 to 21 days after which time all species were compared to controls and visually evaluated. Plant response ratings, summarized in Table D, are based on a scale of 0 to 100 where 0 is no effect and 100 is complete control. A dash (-) response means no test result.

chamomile = assay: Test D postemergence; assay type: in vivo, Matricaria inodora; settings: scale 0 to 100
From the text: as §1, §2

canarygrass = assay: Test D postemergence; assay type: in vivo, Phalaris minor; settings: scale 0 to 100
From the text: as §1, §2

barley, spring = assay: Test D preemergence; assay type: in vivo, Hordeum vulgare; settings: scale 0 to 100
From the text: as §1, §2

barley, winter = assay: Test D preemergence; assay type: in vivo, Hordeum vulgare; settings: scale 0 to 100
From the text: as §1, §2

deadnettle = assay: Test D postemergence; assay type: in vivo, Lamium amplexicaule; settings: scale 0 to 100
From the text: as §1, §2

radish, wild = assay: Test D preemergence; assay type: in vivo, Raphanus raphanistrum; settings: scale 0 to 100
From the text: as §1, §2

wheat, spring = assay: Test D postemergence; assay type: in vivo, Triticum aestivum; settings: scale 0 to 100
From the text: as §1, §2

wheat, winter = assay: Test D postemergence; assay type: in vivo, Triticum aestivum; settings: scale 0 to 100
From the text: as §1, §2

buckwheat, wild = assay: Test D preemergence; assay type: in vivo, Polygonum convolvulus; settings: scale 0 to 100
From the text: as §1, §2

hairy beggarticks = assay: Test F preemergence; assay type: in vivo, Bidens pilosa
From the text: (§3) Seeds of plant species selected from corn (Zea mays), soybean (Glycine max), velvetleaf (Abutilon theophrasti), lambsquarters (Chenopodium album), wild poinsettia (Euphorbia heterophylla), pigweed, palmer (palmer pigweed, Amaranthus palmeri), common waterhemp (Amaranthus rudis), surinam grass (Brachiaria decumbens), large crabgrass (Digitaria sanguinalis), crabgrass, Brazil (Brazilian crabgrass, Digitaria horizontalis), fall panicum (Panicum dichotomiflorum), giant foxtail (Setaria faberii), green foxtail (Setaria viridis), goosegrass (Eleusine indica), johnsongrass (Sorghum halepense), common ragweed (Ambrosia elation), barnyardgrass (Echinochloa crus-galli), southern sandbur (Cenchrus echinatus), arrowleaf sida (Sida rhombifolia), Italian ryegrass (Lolium multiflorum), dayflower, VA (Virginia (VA) dayflower, Commelina virginica), field bindweed (Convolvulus arvensis), cocklebur (common cocklebur, Xanthium strumarium), morningglory (Ipomoea coccinea), nightshade (eastern black nightshade, Solanum ptycanthum), kochia (Kochia scoparia), yellow nutsedge (Cyperus esculentus), and hairy beggarticks (Bidens pilosa), were planted into a silt loam soil and treated preemergence with test chemicals formulated in a non-phytotoxic solvent mixture which included a surfactant.
(§4) At the same time, plants from these crop and weed species and also horseweed (Canada horseweed, Conyza canadensis), smartweed (ladysthumb smartweed, Polygonum persicaria), waterhemp_RES1, (ALS & Triazine resistant common waterhemp, Amaranthus rudis), and waterhemp_RES2, (ALS & HPPD resistant common waterhemp, Amaranthus rudis) were treated with postemergence applications of test chemicals formulated in the same manner. Plants ranged in height from 2 to 18 cm for postemergence treatments (1- to 4-leaf stage). Treated plants and controls were maintained in a greenhouse for 14 to 21 days, after which time all species were compared to controls and visually evaluated. Plant response ratings, summarized in Table F, are based on a scale of 0 to 100 where 0 is no effect and 100 is complete control. A dash (-) response means no test result.

arrowleaf sida = assay: Test F preemergence; assay type: in vivo, Sida rhombifolia
From the text: as §3, §4

giant foxtail = assay: Test F preemergence; assay type: in vivo, Setaria faberii
From the text: as §3, §4

johnsongrass = assay: Test F preemergence; assay type: in vivo, Sorghum halepense
From the text: as §3, §4

[1] = Preemergence, 31 g ai/ha, scale 0 to 100
[2] = Preemergence, 62 g ai/ha, scale 0 to 100
[3] = Preemergence, 125 g ai/ha, scale 0 to 100
[4] = preemergence, 8 g ai/ha, scale 0 to 100, 100 is complete control
[5] = preemergence, 16 g ai/ha, scale 0 to 100, 100 is complete control

CCc1cc(C(=O)NC(C)C)nn1Cc1ccnc(C(F)(F)F)c1 [Compound 103]
Oat, Wild plant response rating (oat, wild; Postemergence, 31 g ai/ha): 10
Oat, Wild plant response rating (oat, wild; Postemergence, 125 g ai/ha): 20
Oat, Wild plant response rating (oat, wild; Postemergence, 250 g ai/ha): 25
Oat, Wild plant response rating (oat, wild; postemergence, 62 g ai/ha): 15
Chamomile plant response rating (chamomile; Postemergence, 31 g ai/ha): 10
Chamomile plant response rating (chamomile; Postemergence, 125 g ai/ha): 30
Chamomile plant response rating (chamomile; Postemergence, 250 g ai/ha): 60
Chamomile plant response rating (chamomile; postemergence, 62 g ai/ha): 30
Canarygrass plant response rating (canarygrass; Postemergence, 31 g ai/ha): 5
Canarygrass plant response rating (canarygrass; Postemergence, 125 g ai/ha): 10
Canarygrass plant response rating (canarygrass; Postemergence, 250 g ai/ha): 10
Canarygrass plant response rating (canarygrass; postemergence, 62 g ai/ha): 5
Plant response rating, Barley, Spring (barley, spring; 31 g ai/ha): 15
Plant response rating, Barley, Spring (barley, spring; 62 g ai/ha): 35
Plant response rating, Barley, Spring (barley, spring; 125 g ai/ha): 80
Plant response rating, Barley, Spring (barley, spring; 250 g ai/ha): 100
Plant response rating, Barley, Winter (barley, winter; 31 g ai/ha): 0
Plant response rating, Barley, Winter (barley, winter; 62 g ai/ha): 35
Plant response rating, Barley, Winter (barley, winter; 125 g ai/ha): 60
Plant response rating, Barley, Winter (barley, winter; 250 g ai/ha): 85
Deadnettle plant response rating (deadnettle; Postemergence, 31 g ai/ha): 20
Deadnettle plant response rating (deadnettle; Postemergence, 125 g ai/ha): 25
Deadnettle plant response rating (deadnettle; Postemergence, 250 g ai/ha): 30
Deadnettle plant response rating (deadnettle; postemergence, 62 g ai/ha): 25
Plant response rating, Radish, Wild (radish, wild; 31 g ai/ha): 95
Plant response rating, Radish, Wild (radish, wild; 62 g ai/ha): 100
Plant response rating, Radish, Wild (radish, wild; 125 g ai/ha): 100
Plant response rating, Radish, Wild (radish, wild; 250 g ai/ha): 100
Wheat, Spring plant response rating (wheat, spring; Postemergence, 31 g ai/ha): 0
Wheat, Spring plant response rating (wheat, spring; Postemergence, 125 g ai/ha): 0
Wheat, Spring plant response rating (wheat, spring; Postemergence, 250 g ai/ha): 5
Wheat, Spring plant response rating (wheat, spring; postemergence, 62 g ai/ha): 0
Wheat, Winter plant response rating (wheat, winter; Postemergence, 31 g ai/ha): 0
Wheat, Winter plant response rating (wheat, winter; Postemergence, 125 g ai/ha): 10
Wheat, Winter plant response rating (wheat, winter; Postemergence, 250 g ai/ha): 30
Wheat, Winter plant response rating (wheat, winter; postemergence, 62 g ai/ha): 5
Plant response rating, Buckwheat, Wild (buckwheat, wild; 31 g ai/ha): 75
Plant response rating, Buckwheat, Wild (buckwheat, wild; 62 g ai/ha): 100
Plant response rating, Buckwheat, Wild (buckwheat, wild; 125 g ai/ha): 100
Plant response rating, Buckwheat, Wild (buckwheat, wild; 250 g ai/ha): 100

CCOc1cc(C(=O)NCC(F)(F)F)nn1Cc1ccnc(C(F)(F)F)c1 [Compound 104]
Plant response rating, Hairy Beggarticks (hairy beggarticks; [1]): 0
Plant response rating, Hairy Beggarticks (hairy beggarticks; [2]): 0
Plant response rating, Hairy Beggarticks (hairy beggarticks; [3]): 10
Plant response rating, Hairy Beggarticks (hairy beggarticks; [4]): 0
Plant response rating, Hairy Beggarticks (hairy beggarticks; [5]): 0
Plant response rating, Arrowleaf Sida (arrowleaf sida; [1]): 10
Plant response rating, Arrowleaf Sida (arrowleaf sida; [2]): 20
Plant response rating, Arrowleaf Sida (arrowleaf sida; [3]): 30
Plant response rating, Arrowleaf Sida (arrowleaf sida; [4]): 0
Plant response rating, Arrowleaf Sida (arrowleaf sida; [5]): 0
Plant response rating, Giant Foxtail (giant foxtail; [1]): 100
Plant response rating, Giant Foxtail (giant foxtail; [2]): 100
Plant response rating, Giant Foxtail (giant foxtail; [3]): 100
Plant response rating, Giant Foxtail (giant foxtail; [4]): 25
Plant response rating, Giant Foxtail (giant foxtail; [5]): 30
Plant response rating, Johnsongrass (johnsongrass; [1]): 60
Plant response rating, Johnsongrass (johnsongrass; [2]): 75
Plant response rating, Johnsongrass (johnsongrass; [3]): 100
Plant response rating, Johnsongrass (johnsongrass; [4]): 15
Plant response rating, Johnsongrass (johnsongrass; [5]): 35

CCNC(=O)c1cc(CCCl)n(Cc2ccnc(C(F)(F)F)c2)n1 [Compound 179]
Plant response rating, Hairy Beggarticks (hairy beggarticks; [1]): 40
Plant response rating, Hairy Beggarticks (hairy beggarticks; [2]): 40
Plant response rating, Hairy Beggarticks (hairy beggarticks; [3]): 40
Plant response rating, Hairy Beggarticks (hairy beggarticks; [4]): 35
Plant response rating, Arrowleaf Sida (arrowleaf sida; [1]): 0
Plant response rating, Arrowleaf Sida (arrowleaf sida; [2]): 0
Plant response rating, Arrowleaf Sida (arrowleaf sida; [3]): 35
Plant response rating, Arrowleaf Sida (arrowleaf sida; [4]): 0
Plant response rating, Giant Foxtail (giant foxtail; [1]): 25
Plant response rating, Giant Foxtail (giant foxtail; [2]): 40
Plant response rating, Giant Foxtail (giant foxtail; [3]): 98
Plant response rating, Giant Foxtail (giant foxtail; [4]): 0
Plant response rating, Johnsongrass (johnsongrass; [1]): 20
Plant response rating, Johnsongrass (johnsongrass; [2]): 20
Plant response rating, Johnsongrass (johnsongrass; [3]): 70
Plant response rating, Johnsongrass (johnsongrass; [4]): 0
